Data as given in US20070167499A1, “Biaryl linked hydroxamates: preparation and pharmaceutical applications” (A*BIO Pte Ltd., priority 2003, published 2007).

Assays:
HDAC1 enzyme (GST-HDAC1) = molecular target: T1, HDAC1 enzyme (GST-HDAC1) (Homo sapiens, UniProt Q13547); assay: In vitro HDAC assay for determination of IC50 values (BIOMOL fluorescent-based HDAC activity assay), HDAC1; format: biochemical; details: 600 nM HDAC1 enzyme, 500 μM Flur de lys generic substrate, room temperature 2 h
T1 construct: Amplification of human HDAC1 and HDAC8 coding region from this cDNA library; made in house; host or cells: SF9 insect cells (baculovirus, pDEST20 vector)
Description: (§1) Recombinant GST-HDAC1 and GST-HDAC-8 Protein expression and purification
(§2) Human cDNA library was prepared using cultured SW620 cells. Amplification of human HDAC1 and HDAC8 coding region from this cDNA library was cloned separately into the baculovirus expression pDEST20 vector and pFASTBAC vector respectively (GATEWAY Cloning Technology, Invitrogen Pte Ltd). The pDEST20-HDAC1 and pFASTBAC-HTGST-HDAC8 constructs were confirmed by DNA sequencing. Recombinant baculovirus was prepared using the Bac-To-Bac method following the manufacturer's instruction (Invitrogen Pte Ltd). Baculovirus titer was determined by plaque assay to be about 10^8 PFU/ml.
(§3) Expression of GST-HDAC1 or HTGST-HDAC8 was done by infecting SF9 cells (Invitrogen Pte Ltd) with pDEST20-HDAC1 or pFASTBAC-GST-HDAC8 baculovirus at MOI=1 for 48 h. Soluble cell lysate was incubated with pre-equilibrated Glutathione Sepharose 4B beads (Amersham) at 4° C. for 2 h. The beads were washed with PBS buffer for 3 times. The GST-HDAC1 protein or GST-HDAC8 protein was eluted by elution buffer containing 50 mM Tris, pH8.0, 150 mM NaCl, 1% Triton X-100 and 10 mM or 20 mM reduced Glutathione. The purified GST-HDAC1 protein or purified GST-HDAC8 protein was dialyzed with HDAC storage buffer containing 10 mM Tris, pH7.5, 100 mM NaCl and 3 mM MgCl2. 20% Glycerol was added to purified GST-HDAC1 protein or purified GST-HDAC8 before storage at −80° C.
(§4) In vitro HDAC assay for determination of IC50 values
The assay has been carried out in 96 well format and the BIOMOL fluorescent-based HDAC activity assay has been applied. The reaction composed of assay buffer, containing 25 mM Tris pH 7.5, 137 mM NaCl, 2.7 mM KCl, 1 mM MgCl2, 1 mg/ml BSA, tested compounds, 500 nM HDAC8 enzyme or 600 nM HDAC1 enzyme, 200 μM Flur de lys p53 peptide substrate for HDAC8 enzyme or 500 μM Flur de lys generic substrate for HDAC1 enzyme and subsequently was incubated at room temperature for 2 h. Flur de lys Developer was added and the reaction was incubated for 10 min. Briefly, deacetylation of the substrate sensitizes it to the developer, which then generates a fluorophore The fluorophore is excited with 360 nm light and the emitted light (460 nm) is detected on a fluorometric plate reader (Tecan Ultra Microplate detection system, Tecan Group Ltd.).
(§5) The analytical software, Prism 3.0® (GraphPad Software Inc) has been used to generate IC50 from a series of data.

HDAC8 enzyme (GST-HDAC8) = molecular target: T2, HDAC8 enzyme (GST-HDAC8) (Homo sapiens, UniProt Q9BY41); assay: In vitro HDAC assay for determination of IC50 values (BIOMOL fluorescent-based HDAC activity assay), HDAC8; format: biochemical; details: 500 nM HDAC8 enzyme, 200 μM Flur de lys p53 peptide substrate, room temperature 2 h; read-out: HDAC8 Enzyme Activity, IC50
T2 construct: Amplification of human HDAC1 and HDAC8 coding region from this cDNA library; made in house; host or cells: SF9 insect cells (baculovirus, pFASTBAC vector)
T2 sequence (Q9BY41 1-377): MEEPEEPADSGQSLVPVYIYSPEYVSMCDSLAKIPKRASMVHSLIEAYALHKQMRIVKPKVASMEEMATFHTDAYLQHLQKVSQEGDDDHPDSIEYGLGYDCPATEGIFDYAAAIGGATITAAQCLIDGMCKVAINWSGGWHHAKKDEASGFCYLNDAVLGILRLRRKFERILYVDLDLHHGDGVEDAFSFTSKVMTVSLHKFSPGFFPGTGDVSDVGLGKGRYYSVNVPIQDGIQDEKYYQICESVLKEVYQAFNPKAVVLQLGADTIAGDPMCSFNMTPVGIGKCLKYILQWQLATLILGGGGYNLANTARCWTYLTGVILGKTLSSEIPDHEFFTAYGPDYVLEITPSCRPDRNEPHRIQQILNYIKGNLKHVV
Description: as §1
as §2, with “The pDEST20-HDAC1 and pFASTBAC-HTGST-HDAC8 constructs were confirmed by DNA sequencing.” left out, “Ltd).” for “Ltd). Baculovirus titer was determined by plaque assay to be about 10^8 PFU/ml.”
as §3, §4
The assay has been carried out in 96 well format and the BIOMOL fluorescent-based HDAC activity assay has been applied. […] Flur de lys Developer was added and the reaction was incubated for 10 min. Briefly, deacetylation of the substrate sensitizes it to the developer, which then generates a fluorophore The fluorophore is excited with 360 nm light and the emitted light (460 nm) is detected on a fluorometric plate reader (Tecan Ultra Microplate detection system, Tecan Group Ltd.).
as §5

[1] = test system: Ramos Burkitt-lymphoma cells; assay: Apoptosis assay (Annexin V / PI flow cytometry); format: cell-based, human; details: 48 h after treatment with 10 μM
From the text: In various therapies such as for proliferative disorders like cancer, the selective induction of apoptosis in proliferating cells such as tumor cells is one of the desirable approaches, and can be mediated by treatment with various anti-proliferative compounds [Blagosklonny MV, Oncogene, 23(16): 2967 (2004); Kaufmann and Eamshaw, Exp Cell Res. 256(1): 42-9 (2000)]. Programmed cell death or apoptosis is the cellular response to stress factors such as DNA damage introduced during conventional anti-cancer treatment. The concerted sequence of events during apoptosis, clearly differentiate this pathway from a non-coordinated form of cell death called necrosis. During the course of apoptosis, characteristic phenotypical cellular changes occur, which include the condensation of chromatin, the shrinkage of cells and finally the fragmentation of chromosomal DNA. One of the very early change caused by apoptotic events occurs in the phospholipids bilayer of the plasma membrane. The phospholipid phosphatidylserine is translocated from the inner to the outer side of the plasma-membrane and, as a result, is exposed to the extracellular space. One way of detecting early apoptotic cells is to determine the amount of phosphatidyl-serine at the extracellular side of the plasma-membrane which is accomplished by the standard flow cytometric method of Annexin V staining. The phospholipids recognizing protein Annexin V binds with high affinity to these inverted and exposed phosphatidyl-serines.
The ability of the compounds in this invention to induce apoptosis was tested in Ramos Burkitt-lymphoma cells. This cell line is one of the gold standard cell lines commonly used as a tissue culture model for B cell lymphoma. Representative compounds as indicated below were added to 80,000 cells per 500 μl growth medium (RPMI1640 medium supplemented with 2 mM L-Glutamine, 10% heat-inactivated FBS, 1 mM Na-Pyruvate and 10 mM HEPES) in 24 well format at various concentrations. Two days after the start of treatment, cells were collected and subjected to the Annexin V staining protocol following the instructions of the manufacturer (BD Biosciences). By using propidium iodide (PI) as a viability control, cells that stain positive for Annexin V, but negative for PI, are undergoing apoptosis.

[2] = test system: acetylated H4 in Colo205 cells; assay: Histone H4 acetylation assay (western-blot); format: cell-based, human; set-up: key: “Active” means accumulation of acetylated histone was observed when compared with control (without compound); details: Colo205 cells, 0.1, 1, 5 and 10 μM, after 24 h
Description: (§6) Histone H3, H4 and H2A acetylation assay
(§7) A hallmark of histone deacetylase (HDAC) inhibition is the increase in the acetylation level of histones. Histone acetylation, including H3, H4 and H2A can be detected by immuno-blotting (western-blot). Colo205 cells, approximately 1.5×10^6 cells/10 cm dish, were seeded in the previously described medium, cultivated for 24 h and subsequently treated with HDAC inhibitory agents at 0.1, 1, 5 and 10 μM final concentration. After 24 h, cells were harvested and lysed according to the instruction from Sigma Mammalian Cell Lysis Kit. The protein concentration was quantified using BCA method (Sigma Pte Ltd). The protein lysate was separated using 4-12% bis-tris SDS-PAGE gel (Invitrogen Pte Ltd) and was transferred onto PVDF membrane (BioRad Pte Ltd). The membrane was probed separately using primary antibody specific for acetylated H3, acetylated H4 or acetylated H2A (Upstate Pte Ltd). The detection antibody, goat anti rabbit antibody conjugated with horse radish peroxidase (HRP) was used according to the manufacturing instruction (Pierce Pte Ltd). After removing the detection antibody from the membrane, an enhanced chemiluminescent substrate for detection of HRP (Pierce Pte Ltd) was added onto the membrane. After removing the substrate, the membrane was exposed to an X-ray film (Kodak) for 1 sec-20 mins. The X-ray film was developed using the X-ray film processor. The density of each band observed on the developed film could be analysed using UVP Bioimaging software (UVP, Inc, Upland, Calif.). The values were then normalized against the density of actin in the corresponding samples to obtain the expression of the protein.

[3] = test system: acetylated H3 in Colo205 cells; assay: Histone H3 acetylation assay (western-blot); format: cell-based, human; set-up: key: “Active” means accumulation of acetylated histone was observed when compared with control (without compound); details: Colo205 cells, 0.1, 1, 5 and 10 μM, after 24 h
Description: as §6
as §7, with “After 24 h, cells were harvested and lysed according to the instruction from Sigma Mammalian Cell Lysis Kit.” left out

T1 sequence (Q13547 whole entry): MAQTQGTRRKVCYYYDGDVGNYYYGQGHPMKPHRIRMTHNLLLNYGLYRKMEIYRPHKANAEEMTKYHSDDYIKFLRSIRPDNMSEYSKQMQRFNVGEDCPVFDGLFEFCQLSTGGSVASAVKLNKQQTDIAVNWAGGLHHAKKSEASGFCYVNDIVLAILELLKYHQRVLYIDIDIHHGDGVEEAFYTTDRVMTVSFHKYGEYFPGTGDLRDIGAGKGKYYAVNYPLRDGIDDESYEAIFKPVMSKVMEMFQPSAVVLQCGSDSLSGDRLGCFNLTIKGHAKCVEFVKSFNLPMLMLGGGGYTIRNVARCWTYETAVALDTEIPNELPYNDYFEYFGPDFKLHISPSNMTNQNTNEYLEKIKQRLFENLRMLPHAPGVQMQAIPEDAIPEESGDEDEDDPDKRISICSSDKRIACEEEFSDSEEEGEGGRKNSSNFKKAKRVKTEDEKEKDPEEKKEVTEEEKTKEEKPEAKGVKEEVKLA

O=C(NO)c1ccc(-c2csc(NS(=O)(=O)c3ccccc3)n2)s1 [Example 15, 5-(2-Benzenesulfonylamino-thiazol-4-yl)-thiophene-2-carboxylic acid hydroxyamide]
IC50 (HDAC1 enzyme (GST-HDAC1)): 1130 nM | IC50 (HDAC8 enzyme (GST-HDAC8)): 290 nM

Cc1nc(C2CCCNC2)sc1C(=O)Nc1nc(-c2ccc(CC(=O)NO)s2)cs1 (stereo not drawn) [Example 6]
IC50 (HDAC1 enzyme (GST-HDAC1)): 2780 nM | IC50 (HDAC8 enzyme (GST-HDAC8)): 40 nM

O=C(NO)c1ccc(-c2ccc(NCc3ccccc3)cc2)s1 [Example 44]
% cells in late apoptosis (Ramos) [1]: 82% | IC50 (HDAC1 enzyme (GST-HDAC1)): 1420 nM | IC50 (HDAC8 enzyme (GST-HDAC8)): 110 nM

O=C(NO)c1ccc(-c2cccc(CNCCc3ccccn3)c2)s1 [Example 30]
IC50 (HDAC1 enzyme (GST-HDAC1)): 220 nM | Histone 4 acetylation [2]: Active | IC50 (HDAC8 enzyme (GST-HDAC8)): 50 nM | Histone 3 acetylation [3]: Active

O=C(Cc1ccc(-c2csc(NC(=O)c3ccn(CC4CCNCC4)c3-c3ccccc3)n2)s1)NO [Example 10]
IC50 (HDAC1 enzyme (GST-HDAC1)): > 100000 nM | IC50 (HDAC8 enzyme (GST-HDAC8)): 140 nM

O=C(NO)c1ccc(-c2cccc(CNCCc3c[nH]c4ccccc34)c2)s1 [Example 31]
IC50 (HDAC1 enzyme (GST-HDAC1)): 17 nM | IC50 (HDAC8 enzyme (GST-HDAC8)): 8 nM

O=C(NO)c1ccc(-c2cccc(CNCCc3ccccc3)c2)s1 [Example 29]
IC50 (HDAC1 enzyme (GST-HDAC1)): 87 nM | IC50 (HDAC8 enzyme (GST-HDAC8)): 26 nM

O=C(Cc1ccc(-c2csc(NC(=O)c3ccc(N4CCNCC4)cc3)n2)s1)NO [Example 8]
% cells in late apoptosis (Ramos) [1]: 74% | IC50 (HDAC1 enzyme (GST-HDAC1)): 2760 nM | IC50 (HDAC8 enzyme (GST-HDAC8)): 89 nM

O=C(Cc1ccccc1)NCc1cccc(-c2ccc(C(=O)NO)cc2)c1 [3′-(Phenylacetylamino-methyl)-biphenyl-4-carboxylic acid hydroxyamide, reference compound]
% cells in late apoptosis (Ramos) [1]: 89%

O=C(NO)c1ccc(-c2ccc(CNCCc3c[nH]c4ccccc34)cc2)s1 [Example 28]
IC50 (HDAC1 enzyme (GST-HDAC1)): 15 nM | IC50 (HDAC8 enzyme (GST-HDAC8)): 14 nM

O=C(Nc1cccc(-c2cc(C(=O)NO)n[nH]2)c1)c1ccccc1 [Example 18, 5-(3-Benzoylamino-ihenyl)-1H-pyrazole-3-carboxylic acid hydroxyamide]
IC50 (HDAC1 enzyme (GST-HDAC1)): > 100000 nM | IC50 (HDAC8 enzyme (GST-HDAC8)): 350 nM

O=C(Cc1ccccc1)Nc1nc(-c2cc(C(=O)NO)no2)cs1 [Example 17, 5-(2-Phenylacetylamino-thiazol-4-yl)-isoxazole-3-carboxylic acid hydroxyamide]
IC50 (HDAC1 enzyme (GST-HDAC1)): 1400 nM | IC50 (HDAC8 enzyme (GST-HDAC8)): 340 nM

O=C(COc1ccccc1)Nc1nc(-c2ccc(C(=O)NO)s2)cs1 [Example 16, 5-[2-(2-Phenoxy-acetamino)-thiazol-4-yl]-thiophene-2-carboxylic acid hydroxyamide]
% cells in late apoptosis (Ramos) [1]: 90% | IC50 (HDAC1 enzyme (GST-HDAC1)): 700 nM | IC50 (HDAC8 enzyme (GST-HDAC8)): 38 nM
